Laboratory results as given in ChEMBL document CHEMBL1134991, “Alpha(1)-adrenoceptor activation: a comparison of 4-(anilinomethyl)imidazoles and 4-(phenoxymethyl)imidazoles to related 2-imidazolines” (Bioorg Med Chem Lett, 2002).

Columns and labels:
[1] = biological target: T1, Alpha-1A adrenergic receptor (Homo sapiens) (UniProt P35348); assay: Activation of human alpha-1A adrenergic receptor expressed in rat-1 fibroblasts; expressed as a percent of the maximal effect of the phenylephrine; type: functional
T1 sequence (whole entry): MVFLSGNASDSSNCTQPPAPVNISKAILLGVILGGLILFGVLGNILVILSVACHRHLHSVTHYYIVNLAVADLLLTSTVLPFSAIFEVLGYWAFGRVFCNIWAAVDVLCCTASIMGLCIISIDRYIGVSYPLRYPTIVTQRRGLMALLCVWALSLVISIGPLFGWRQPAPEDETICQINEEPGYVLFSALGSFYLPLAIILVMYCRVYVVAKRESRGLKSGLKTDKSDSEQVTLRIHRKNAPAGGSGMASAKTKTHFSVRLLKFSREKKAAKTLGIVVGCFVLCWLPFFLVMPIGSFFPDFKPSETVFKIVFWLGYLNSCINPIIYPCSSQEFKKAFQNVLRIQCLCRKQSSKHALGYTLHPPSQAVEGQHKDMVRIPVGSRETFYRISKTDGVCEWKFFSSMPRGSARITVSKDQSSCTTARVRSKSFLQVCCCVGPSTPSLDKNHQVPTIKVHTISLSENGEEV

[2] = biological target: T2, Alpha-1B adrenergic receptor (Homo sapiens, UniProt P35368); assay: Activation of human alpha-1B adrenergic receptors expressed in rat-1 fibroblasts; type: functional
T2 sequence (P35368 whole entry): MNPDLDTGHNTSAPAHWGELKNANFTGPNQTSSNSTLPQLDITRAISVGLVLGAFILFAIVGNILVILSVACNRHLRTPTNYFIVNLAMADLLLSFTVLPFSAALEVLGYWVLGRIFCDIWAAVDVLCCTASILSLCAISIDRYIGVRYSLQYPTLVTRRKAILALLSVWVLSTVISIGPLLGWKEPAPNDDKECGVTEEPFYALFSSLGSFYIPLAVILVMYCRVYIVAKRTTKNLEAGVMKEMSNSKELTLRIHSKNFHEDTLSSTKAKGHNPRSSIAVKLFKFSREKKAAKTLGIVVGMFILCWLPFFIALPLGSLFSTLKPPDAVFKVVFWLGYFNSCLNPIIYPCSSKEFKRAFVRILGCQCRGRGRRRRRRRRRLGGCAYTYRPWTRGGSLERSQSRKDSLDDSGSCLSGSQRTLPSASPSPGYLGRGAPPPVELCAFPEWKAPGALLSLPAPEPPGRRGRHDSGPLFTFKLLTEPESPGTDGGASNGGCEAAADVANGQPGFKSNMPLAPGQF

[3] = biological target: T3, Alpha-1A adrenergic receptor (Homo sapiens, UniProt P35348); assay: Activation of human alpha-1A adrenergic receptor expressed in rat-1 fibroblasts; type: functional
T3 sequence (P35348 whole entry): T1 sequence (whole entry)

[4] = biological target: T4, Alpha-1D adrenergic receptor (Homo sapiens, UniProt P25100); assay: Activation of human Alpha-1D adrenergic receptors expressed in rat-1 fibroblasts; type: functional
T4 sequence (P25100 whole entry): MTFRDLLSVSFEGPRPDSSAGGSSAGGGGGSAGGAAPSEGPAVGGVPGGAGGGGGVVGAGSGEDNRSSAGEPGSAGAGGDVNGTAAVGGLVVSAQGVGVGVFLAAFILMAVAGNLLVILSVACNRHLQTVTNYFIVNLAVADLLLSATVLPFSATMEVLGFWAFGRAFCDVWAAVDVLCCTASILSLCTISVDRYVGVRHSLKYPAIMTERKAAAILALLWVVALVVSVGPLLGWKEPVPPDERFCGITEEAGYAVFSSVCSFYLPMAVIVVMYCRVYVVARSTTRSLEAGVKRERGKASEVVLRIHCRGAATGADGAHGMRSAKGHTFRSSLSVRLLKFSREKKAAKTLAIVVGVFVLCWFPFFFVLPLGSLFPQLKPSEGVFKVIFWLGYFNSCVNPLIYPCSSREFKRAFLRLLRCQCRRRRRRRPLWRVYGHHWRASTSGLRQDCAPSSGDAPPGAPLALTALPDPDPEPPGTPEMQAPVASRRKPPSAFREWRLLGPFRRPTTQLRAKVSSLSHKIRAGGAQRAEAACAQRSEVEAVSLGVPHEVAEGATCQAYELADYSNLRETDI

[5] = biological target: T5, Adrenergic receptor alpha-1 (Rattus norvegicus, UniProt P15823+P23944+P43140); assay: Inhibition of binding of [3H]-prazosin at alpha1 adrenoceptors isolated from rat brain
T5 sequence (P15823 whole entry): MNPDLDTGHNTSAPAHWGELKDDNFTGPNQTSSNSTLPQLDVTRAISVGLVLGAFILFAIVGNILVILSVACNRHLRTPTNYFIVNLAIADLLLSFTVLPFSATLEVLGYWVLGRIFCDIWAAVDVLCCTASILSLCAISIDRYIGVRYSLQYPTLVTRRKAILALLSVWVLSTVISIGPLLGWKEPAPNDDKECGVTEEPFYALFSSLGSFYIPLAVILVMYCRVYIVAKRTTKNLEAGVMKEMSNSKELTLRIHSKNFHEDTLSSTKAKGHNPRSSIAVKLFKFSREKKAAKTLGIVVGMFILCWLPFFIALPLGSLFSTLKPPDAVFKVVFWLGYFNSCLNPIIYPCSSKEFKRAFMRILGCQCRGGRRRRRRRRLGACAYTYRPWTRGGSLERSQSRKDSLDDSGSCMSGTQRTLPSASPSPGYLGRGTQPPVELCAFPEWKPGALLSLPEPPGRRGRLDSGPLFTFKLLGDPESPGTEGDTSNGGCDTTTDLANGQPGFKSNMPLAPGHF
T5 sequence (P23944 whole entry): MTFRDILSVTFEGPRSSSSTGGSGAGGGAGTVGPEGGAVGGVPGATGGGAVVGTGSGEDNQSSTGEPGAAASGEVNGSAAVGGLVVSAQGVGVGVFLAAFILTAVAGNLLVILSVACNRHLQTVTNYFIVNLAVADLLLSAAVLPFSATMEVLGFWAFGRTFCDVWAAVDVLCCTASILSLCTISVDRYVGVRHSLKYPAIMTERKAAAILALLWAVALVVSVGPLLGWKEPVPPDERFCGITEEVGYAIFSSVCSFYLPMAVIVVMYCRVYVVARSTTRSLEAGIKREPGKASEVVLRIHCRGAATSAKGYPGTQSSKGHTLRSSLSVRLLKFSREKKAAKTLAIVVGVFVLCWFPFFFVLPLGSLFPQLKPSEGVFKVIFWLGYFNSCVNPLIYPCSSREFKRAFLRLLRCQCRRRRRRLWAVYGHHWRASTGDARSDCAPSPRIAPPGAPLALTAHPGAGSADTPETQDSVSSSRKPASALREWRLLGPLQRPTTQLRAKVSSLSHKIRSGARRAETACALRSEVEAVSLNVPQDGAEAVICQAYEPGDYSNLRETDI
T5 sequence (P43140 whole entry): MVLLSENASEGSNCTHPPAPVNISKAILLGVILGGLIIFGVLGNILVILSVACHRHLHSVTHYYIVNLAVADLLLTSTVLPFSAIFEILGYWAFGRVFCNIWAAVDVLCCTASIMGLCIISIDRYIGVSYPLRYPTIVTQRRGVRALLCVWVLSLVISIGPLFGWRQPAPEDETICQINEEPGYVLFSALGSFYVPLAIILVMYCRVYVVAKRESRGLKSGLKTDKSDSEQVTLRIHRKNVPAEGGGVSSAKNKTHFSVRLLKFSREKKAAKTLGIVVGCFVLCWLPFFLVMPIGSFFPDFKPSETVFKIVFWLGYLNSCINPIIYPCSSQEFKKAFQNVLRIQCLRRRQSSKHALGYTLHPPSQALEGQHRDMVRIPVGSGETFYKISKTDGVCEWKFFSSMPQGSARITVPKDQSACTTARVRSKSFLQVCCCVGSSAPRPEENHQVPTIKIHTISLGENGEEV

[6] = biological target: T3, Alpha-1A adrenergic receptor; assay: In vitro binding affinity against cloned human alpha-1A-adrenoceptor receptors expressed in rat-1 fibroblasts
[7] = biological target: T2, Alpha-1B adrenergic receptor; assay: In vitro binding affinity against cloned human alpha-1B-adrenoceptor receptors expressed in rat-1 fibroblasts
[8] = biological target: T4, Alpha-1D adrenergic receptor; assay: In vitro binding affinity against cloned human alpha-1D-adrenoceptor receptors expressed in rat-1 fibroblasts
[9] = biological target: T6, Alpha-1D adrenergic receptor (Homo sapiens) (UniProt P25100); assay: Activation of human alpha-1D-adrenoceptor receptor expressed in rat-1 fibroblasts relative to phenylephrine; type: functional
T6 sequence (whole entry): T4 sequence (P25100 whole entry)

[10] = biological target: T7, Alpha-1B adrenergic receptor (Homo sapiens) (UniProt P35368); assay: Activation of human alpha-1B-adrenoceptor receptors expressed in rat-1 fibroblasts as percent maximal effect relative to phenylephrine; type: functional
T7 sequence (whole entry): T2 sequence (P35368 whole entry)

[11] = Acid dissociation constant for the compound was determined; type: ADME

Row | Max [1] | EC50 [2] | EC50 [3] | EC50 [4] | IC50 [5] | IC50 [6] | IC50 [7] | IC50 [8] | Max [9] | Max [10] | pKa [11] | Structure (SMILES)
1 | 95% | > 5010 nM | 50.1 nM | > 5010 nM | – | – | – | – | – | – | – | c1ccc(N2CCCCC2)c(NCc2c[nH]cn2)c1
2 | – | – | – | – | 102 nM | – | – | – | – | – | – | Cc1ccc(C)c(OCc2c[nH]cn2)c1
3 | 105% | > 100000 nM | 50.1 nM | > 100000 nM | – | – | – | – | – | – | – | CS(=O)(=O)c1ccccc1NCC1=NCCN1
4 | 102% | > 100000 nM | 15.8 nM | > 100000 nM | – | 302 nM | 5890 nM | 933 nM | – | – | – | c1ccc(-c2ccccc2OCc2c[nH]cn2)cc1
5 | – | > 100000 nM | > 100000 nM | > 100000 nM | – | > 30200 nM | > 30200 nM | > 30200 nM | – | – | – | CCN(CC)C(=O)c1ccccc1OCC1=NCCN1
6 | 104% | – | – | – | – | – | – | – | – | – | – | c1ccc(-c2ccccc2OCC2=NCCN2)nc1
7 | 110% | > 5010 nM | 6.31 nM | 31.6 nM | – | – | – | – | 53% | – | – | Oc1ccc2cccc(NCC3=NCCN3)c2c1
8 | 100% | > 5010 nM | 63.1 nM | > 5010 nM | – | – | – | – | – | – | – | Oc1ccc2cccc(NCc3c[nH]cn3)c2c1
9 | 91% | 100 nM | 6.31 nM | 100 nM | – | – | – | – | 34% | 81% | – | c1ccc(-c2ccno2)c(OCC2=NCCN2)c1
10 | – | > 100000 nM | > 100000 nM | > 100000 nM | – | > 30200 nM | > 30200 nM | > 30200 nM | – | – | – | CCN(CC)C(=O)c1ccccc1OCc1c[nH]cn1
11 | – | – | – | – | – | 282 nM | 1700 nM | 513 nM | – | – | – | CCCNC(=O)c1ccccc1NCC1=NCCN1
12 | 114% | > 5010 nM | 63.1 nM | > 5010 nM | – | – | – | – | – | – | – | CCN(CC)C(=O)c1ccccc1NCc1c[nH]cn1
13 | – | – | – | – | 263 nM | – | – | – | – | – | – | Clc1cccc(Cl)c1NCc1c[nH]cn1
14 | 100% | 316 nM | 3.98 nM | 79.4 nM | – | 77.6 nM | 3020 nM | 871 nM | 77% | 89% | – | CCCNC(=O)c1ccccc1NCc1c[nH]cn1
15 | 94% | – | – | – | – | – | – | – | 36% | 78% | – | CSc1ccccc1NCc1c[nH]cn1
16 | 120% | > 5010 nM | 50.1 nM | > 251 nM | – | – | – | – | 51% | – | – | c1ccc(-c2cnco2)c(NCc2c[nH]cn2)c1
17 | 96% | – | – | – | – | 66.1 nM | 2400 nM | 550 nM | – | – | – | c1ccc(-c2ccccc2OCC2=NCCN2)cc1
18 | 105% | 2 nM | 5.01 nM | 7.94 nM | – | 107 nM | 219 nM | 19.5 nM | 55% | 105% | 10.3 | CSc1ccccc1NCC1=NCCN1
19 | – | 25.1 nM | 10 nM | 20 nM | – | 170 nM | 891 nM | 57.5 nM | – | – | 6.5 | CSc1ccccc1NCc1cnc[nH]1
20 | 91% | > 100000 nM | 158 nM | > 100000 nM | – | – | – | – | – | – | – | c1ccc(-c2ccno2)c(OCc2c[nH]cn2)c1
21 | 114% | > 5010 nM | 12.6 nM | > 5010 nM | – | – | – | – | – | – | – | c1ccc(N2CCCCC2)c(NCC2=NCCN2)c1
22 | 97% | > 100000 nM | 126 nM | > 100000 nM | – | – | – | – | – | – | – | CS(=O)(=O)c1ccccc1NCc1c[nH]cn1
23 | 107% | > 5010 nM | 20 nM | > 5010 nM | – | – | – | – | – | – | – | c1ccc(-c2cnco2)c(NCC2=NCCN2)c1

Row | Structure (SMILES) | Max [1] | EC50 [2] | EC50 [3] | EC50 [4] | IC50 [5] | IC50 [6] | IC50 [7] | IC50 [8] | Max [9] | Max [10] | pKa [11]
24 | COc1ccc(S(C)(=O)=O)c(NCC2=NCCN2)c1 | – | > 100000 nM | 12.6 nM | > 100000 nM | – | – | – | – | – | – | –
